From US20230084927A1, “GLUCOSE UPTAKE INHIBITORS AND USES THEREOF” (METABOMED LTD., priority 2019, published 2023)
Like-named read-outs stand apart in the source and are kept apart here.

What was measured:
ACHN WT, RCC cells = experiment: Cell viability in SDH-deficient/proficient isogenic pairs; format: cell-based; conditions: Homo sapiens, cancer cells, 72 hours
Procedure: (§1) The cells were grown in DMEM F12 supplemented with 1 mM Glutamine+3% FBS were treated with different concentrations of the indicated compounds. Cell viability was determined 72 hours later by CellTiter Glue reagent (Promega), the luminescence was measured with ClarioStar reader (BMG) and the EC50s were calculated by Prism. Murine SDHB-WT/KO, HRAS transformed isogenic pair (FIG. 12A); UOK269, Human Tumor-derived SDHB-deficient RCC in their WT counterpart with re-expression of SDHB (FIG. 12B); and ACHN, RCC cells, and their SDHB-KO (SDHB CRISPRed out) isogenic cells (FIG. 12C).

[1] = system: ACHN SDHB −/− (SDHB CRISPRed out); experiment: as above; format: cell-based; conditions: Homo sapiens, cancer cells, 72 hours
Procedure: as §1

UOK269 (SDHB-def.) RCC = experiment: as above; format: cell-based, Human; conditions: Homo sapiens, tumor-derived, 72 hours
Procedure: as §1

[2] = system: UOK269-WT (re-expression of SDHB); experiment: as above; format: cell-based, Human; conditions: Homo sapiens, tumor-derived, 72 hours
Procedure: as §1

[3] = system: 2-DeoxyGlucose phosphorylation in murine SDH-WT cells; experiment: 2 DG phosphorylation assay; format: cell-based; conditions: Mus musculus, 0.25 h, 15 min, LC-MS
Procedure: IC50 of compound 145 and GluT1 inhibitor […] in a 2 DG phosphorylation assay was done using murine SDH-WT cells. The cells were treated for 15 min with the indicated compound at different concentrations in the presence of 2 DG. 2 DG phosphorylation was determined by LC-MS analysis and the inhibition IC50 was determined by Prism software.

SDH-WT cells = experiment: Cellular / differential toxicity assay (CellTiter-Glo, 3 days); format: cell-based, murine; conditions: Mus musculus, 72 h
Outline: (§2)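 Isogenic SDHB-deficient (HRAS-transformed SDH-KO) and SDH-WT cells grown in DMEM-F12 with 1 mM glutamine and 3% FBS, plated with compound (10-point dilution from 10 uM to 0.0065 uM or lower) for 3 days at 37 °C, 5% CO2. Viability by CellTiter-Glo luminescence; EC50 calculated.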

[4] = system: SDH-KO-HRAS cells (SDHB-deficient); experiment: as above; format: cell-based, murine; conditions: for EC50: Mus musculus, 72 h; for differential toxicity, SDH-KO cells compared to SDH-WT cells: viability EC50s, Example 6
Outline: as §2

[5] = system: m+3 lactate secretion (glycolysis) in SDH-KO cells; experiment: Glycolysis inhibition (IC50 Lactate m+3); format: cell-based; conditions: 1 h, 25 mM 13C-glucose, one hour
Procedure: (§3) Glycolysis Inhibition (IC50 Lactate m+3)
(§4) Cell were plated in DMEM, 25 mM Glucose, 1 mM Pyruvate, 1 mM Glutamine and 10% Dialyzed serum in 96 well plates in triplicates. The day after the medium was replaced to fresh medium with 25 mM ^13C-glucose and treated with different concentrations of the compounds as indicated. One hour later the medium was collected and the level of m+3 lactate was determined by LC-MS. The IC50 of inhibition of m+3 lactate secretion into the medium was calculated with Prism.

[6] = system: m+3 lactate secretion (glycolysis) in SDH-WT cells; experiment: Glycolysis inhibition (IC50 Lactate m+3); format: cell-based; conditions: 1 h, 25 mM 13C-glucose, one hour
Procedure: as §3, §4

[7] = PK profile (plasma and brain concentration); format: in vivo
Procedure: FIG. 14 describes the pharmacokinetics of compound 332.
FIG. 14A depicts the Mean Plasma Concentration of Compound 332 after IP7, IV bolus1 and PO2 Dosing. FIG. 14B depicts the Mean Brain Concentration of Compound 332 after IP Dosing at 2.50 mg/kg and FIG. 14C depicts the Mean Brain Concentration of Compound 332 after IV bolus Dosing at 2.50 mg/kg.

[8] = toxicity, SDH-WT cells, 3 days, CellTiter-Glo, read-out: EC50 (uM) SDH-WT
[9] = toxicity, SDH-KO cells, 3 days, CellTiter-Glo, read-out: EC50 (uM) SDH-KO-HTAS-C17

For Cc1c(NC(=O)c2cc(C(N)=O)nc3cc(F)ccc23)c(C(F)(F)F)nn1Cc1ccc(C#N)cc1 [BAY-876, reference compound], the EC50 (ACHN WT, RCC cells) was 24200 nM, the EC50 [1] was 256 nM and the EC50 (UOK269 (SDHB-def.) RCC) was 15 nM. It also gave an EC50 [2] of 5300 nM, an IC50 [3] of 21.6 nM and an EC50 (SDH-WT cells; Murine SDH-WT, transformed, 72 hours, Example 8, read-out: EC50) of 0.134 µM. For the same compound, the EC50 ([4]; Murine SDH-KO, transformed, 72 hours, Example 8, read-out: EC50) was 0.95 nM.
With COCc1c2c(nc3sc4c(NCCc5ccc6[nH]cnc6c5)ncnc4c13)CC(C)(C)OC2 [Compound 308, N-(2-(1H-Benzo[d]imidazol-5-yl)ethyl)-11-(methoxymethyl)-8,8-dimethyl-7,10-dihydro-8H-pyrano[3″,4″:5′,6′]pyrido[3′,2′:4,5]thieno[3,2-d]pyrimidin-4-amine] the IC50 [5] was 0.03 nM, the IC50 [6] was 0.15 nM and the EC50 (SDH-WT cells; SDH-WT cells, 72 hours, Example 7, read-out: EC50 Tox) was 2.17 µM. It also gave an EC50 (SDH-WT cells; [8]) of 1 to 3 µM, an EC50 ([4]; SDH-KO cells, 72 hours, Example 7, read-out: EC50 Tox) of 0.004 nM and an EC50 [4, 9] of under 1000 nM. The “differential effect between SDH-WT and KO cells (EC50 Tox)” value ([4]; cell viability, Example 7) was > 500,000 folds.
For COCCOCCOCCOCCNC(=O)c1c2c(nc3sc4c(NCCc5ccc6[nH]cnc6c5)ncnc4c13)CC(C)(C)OC2 [Compound 317, 4-((2-(1H-Benzo[d]imidazol-5-yl)ethyl)amino)-8,8-dimethyl-N-(2,5,8,11-tetraoxatridecan-13-yl)-7,10-dihydro-8H-pyrano[3″,4″:5′,6′]pyrido[3′,2′:4,5]thieno[3,2-d]pyrimidine-11-carboxamide], the EC50 (SDH-WT cells; [8]) was 3 to 10 µM and the EC50 [4, 9] was 3000 to 10000 nM.
In the case of CC1(C)Cc2nc3sc4c(NCCc5ccc6[nH]cnc6c5)ncnc4c3c(-c3cncs3)c2CO1 [Compound 318], the EC50 (SDH-WT cells; [8]) is reported as under 1 µM and the EC50 [4, 9] is reported as under 1000 nM.
Compound CSCc1c2c(nc3sc4c(NCCc5ccc6[nH]cnc6c5)ncnc4c13)CC(C)(C)OC2 [Compound 319, N-(2-(1H-Benzo[d]imidazol-5-yl)ethyl)-8,8-dimethyl-11-((methylthio)methyl)-7,10-dihydro-8H-pyrano[3″,4″:5′,6′]pyrido[3′,2′:4,5]thieno[3,2-d]pyrimidin-4-amine] has an EC50 (SDH-WT cells; [8]) of 1 to 3 µM and an EC50 [4, 9] of under 1000 nM.
COCCOCCOCCNCc1c2c(nc3sc4c(NCCc5ccc6[nH]cnc6c5)ncnc4c13)CC(C)(C)OC2 [Compound 320, N-(2-(1H-Benzo[d]imidazol-5-yl)ethyl)-11-(5,8,11-trioxa-2-azadodecyl)-8,8-dimethyl-7,10-dihydro-8H-pyrano[3″,4″:5′,6′]pyrido[3′,2′:4,5]thieno[3,2-d]pyrimidin-4-amine] showed an EC50 (SDH-WT cells; [8]) of 3 to 10 µM and an EC50 [4, 9] of 3000 to 10000 nM.
COCCOCCOCCOCCNCc1c2c(nc3sc4c(NCCc5ccc6[nH]cnc6c5)ncnc4c13)CC(C)(C)OC2 [Compound 321, N-(2-(1H-Benzo[d]imidazol-5-yl)ethyl)-8,8-dimethyl-11-(5,8,11,14-tetraoxa-2-azapentadecyl)-7,10-dihydro-8H-pyrano[3″,4″:5′,6′]pyrido[3′,2′:4,5]thieno[3,2-d]pyrimidin-4-amine] gave an EC50 (SDH-WT cells; [8]) of 3 to 10 µM and an EC50 [4, 9] of 1000 to 3000 nM.
In the case of CC1(C)Cc2nc3sc4c(NCCc5ccc6[nH]cnc6c5)ncnc4c3c(COc3ccccc3)c2CO1 [Compound 322, N-(2-(1H-Benzo[d]imidazol-5-yl)ethyl)-8,8-dimethyl-11-(phenoxymethyl)-7,10-dihydro-8H-pyrano[3″,4″:5′,6′]pyrido[3′,2′:4,5]thieno[3,2-d]pyrimidin-4-amine], the EC50 (SDH-WT cells; [8]) is reported as under 1 µM and the EC50 [4, 9] is reported as under 1000 nM.
With CC(C)COCc1c2c(nc3sc4c(NCCc5ccc6[nH]cnc6c5)ncnc4c13)CC(C)(C)OC2 [Compound 323, N-(2-(1H-Benzo[d]imidazol-5-yl)ethyl)-11-(isobutoxymethyl)-8,8-dimethyl-7,10-dihydro-8H-pyrano[3″,4″:5′,6′]pyrido[3′,2′:4,5]thieno[3,2-d]pyrimidin-4-amine] the EC50 (SDH-WT cells; [8]) was under 1 µM and the EC50 [4, 9] was under 1000 nM.
Work on CC1(C)Cc2nc3sc4c(NCCc5ccc6[nH]cnc6c5)ncnc4c3c(COC3CCOCC3)c2CO1 [Compound 324, N-(2-(1H-Benzo[d]imidazol-5-yl)ethyl)-8,8-dimethyl-11-(((tetrahydro-2H-pyran-4-yl)oxy)methyl)-7,10-dihydro-8H-pyrano[3″,4″:5′,6′]pyrido[3′,2′:4,5]thieno[3,2-d]pyrimidin-4-amine] yielded an EC50 (SDH-WT cells; [8]) of under 1 µM and an EC50 [4, 9] of under 1000 nM.
For CC1(C)Cc2nc3sc4c(NCCc5ccc6[nH]cnc6c5)ncnc4c3c(COC3CCCCC3)c2CO1 [Compound 327, N-(2-(1H-Benzo[d]imidazol-5-yl)ethyl)-11-((cyclohexyloxy)methyl)-8,8-dimethyl-7,10-dihydro-8H-pyrano[3″,4″:5′,6′]pyrido[3′,2′:4,5]thieno[3,2-d]pyrimidin-4-amine], the EC50 (SDH-WT cells; [8]) was under 1 µM and the EC50 [4, 9] was under 1000 nM.
CN1CCC(OCc2c3c(nc4sc5c(NCCc6ccc7[nH]cnc7c6)ncnc5c24)CC(C)(C)OC3)CC1 [Compound 328, N-(2-(1H-Benzo[d]imidazol-5-yl)ethyl)-8,8-dimethyl-11-(((1-methylpiperidin-4-yl)oxy)methyl)-7,10-dihydro-8H-pyrano[3″,4″:5′,6′]pyrido[3′,2′:4,5]thieno[3,2-d]pyrimidin-4-amine] gave an EC50 (SDH-WT cells; [8]) of 3 to 10 µM and an EC50 [4, 9] of 3000 to 10000 nM.
CC1(C)Cc2nc3oc4c(NCCc5ccc6[nH]cnc6c5)ncnc4c3cc2CO1 [Compound 329] showed an EC50 (SDH-WT cells; [8]) of under 1 µM and an EC50 [4, 9] of under 1000 nM.
In the case of COCCOCCOCCOCCN(C)Cc1c2c(nc3sc4c(NCCc5ccc6[nH]cnc6c5)ncnc4c13)CC(C)(C)OC2 [Compound 330, N-(2-(1H-Benzo[d]imidazol-5-yl)ethyl)-8,8-dimethyl-11-(2-methyl-5,8,11,14-tetraoxa-2-azapentadecyl)-7,10-dihydro-8H-pyrano[3″,4″:5′,6′]pyrido[3′,2′:4,5]thieno[3,2-d]pyrimidin-4-amine], the EC50 (SDH-WT cells; [8]) is reported as 3 to 10 µM, the EC50 [4, 9] is reported as under 1000 nM and the “differential toxicity, SDH-KO cells compared to SDH-WT cells” value (shortened to “differential toxicity, SDH-KO cells”) ([4]; 72 hours) is reported as over 56.
In the case of COCCOCCOCCN(C)Cc1c2c(nc3sc4c(NCCc5ccc6[nH]cnc6c5)ncnc4c13)CC(C)(C)OC2 [Compound 331, N-(2-(1H-Benzo[d]imidazol-5-yl)ethyl)-8,8-dimethyl-11-(2-methyl-5,8,11-trioxa-2-azadodecyl)-7,10-dihydro-8H-pyrano[3″,4″:5′,6′]pyrido[3′,2′:4,5]thieno[3,2-d]pyrimidin-4-amine], the EC50 (SDH-WT cells; [8]) is reported as 3 to 10 µM, the EC50 [4, 9] is reported as under 1000 nM and the “differential toxicity, SDH-KO cells” value ([4]; 72 hours) is reported as over 42.
With COCCOCc1c2c(nc3sc4c(NCCc5ccc6[nH]cnc6c5)ncnc4c13)CC(C)(C)OC2 [Compound 332] the EC50 (SDH-WT cells; [8]) was 1 to 3 µM, the EC50 [4, 9] was under 1000 nM and the “differential toxicity, SDH-KO cells” value ([4]; 72 hours) was 235. The oral bioavailability ([7]; PO dosing vs IV bolus, plasma) was “low” and the brain penetration ([7]; brain concentration after IP and IV bolus dosing at 2.50 mg/kg) was “brain penetrant”.
In the case of CC1(C)Cc2nc3sc4c(NCCc5ccc6[nH]cnc6c5)ncnc4c3c(COC3CCCC3)c2CO1 [Compound 333], the EC50 (SDH-WT cells; [8]) is reported as 1 to 3 µM and the EC50 [4, 9] is reported as under 1000 nM.
Compound CN(C)Cc1c2c(nc3sc4c(NCCc5ccc6[nH]cnc6c5)ncnc4c13)CC(C)(C)OC2 [Compound 334] has an EC50 (SDH-WT cells; [8]) of 3 to 10 µM and an EC50 [4, 9] of under 1000 nM.
COCCCCc1c2c(nc3sc4c(NCCc5ccc6[nH]cnc6c5)ncnc4c13)CC(C)(C)OC2 [Compound 335] showed an EC50 (SDH-WT cells; [8]) of 3 to 10 µM and an EC50 [4, 9] of under 1000 nM.
